Measured values as given in patent publication US20110230428A1, “CERTAIN KYNURENINE-3-MONOOXYGENASE INHIBITORS, PHARMACEUTICAL COMPOSITIONS, AND METHODS OF USE THEREOF” (priority 2008, published 2011).
Counter-ions that a name gives are not always drawn.

The compounds below were run against T1, KMO mouse enzyme (Mus musculus, UniProt Q91WN4) (assay: KMO mouse enzyme assay: L-Kynurenine hydroxylation to 3OH-KYN by LC/MS). Conditions: compound at 10 μM; KMO from mouse liver mitochondria; read-out: INH.Mouse @ 10 μM.
T1 construct: KMO enzyme prepared at Evotec from mouse liver (4-6 weeks old) via mitochondria isolation; from tissue; host or cells: mouse liver (4-6 weeks old), isolated mitochondria
T1 sequence (Q91WN4 whole entry): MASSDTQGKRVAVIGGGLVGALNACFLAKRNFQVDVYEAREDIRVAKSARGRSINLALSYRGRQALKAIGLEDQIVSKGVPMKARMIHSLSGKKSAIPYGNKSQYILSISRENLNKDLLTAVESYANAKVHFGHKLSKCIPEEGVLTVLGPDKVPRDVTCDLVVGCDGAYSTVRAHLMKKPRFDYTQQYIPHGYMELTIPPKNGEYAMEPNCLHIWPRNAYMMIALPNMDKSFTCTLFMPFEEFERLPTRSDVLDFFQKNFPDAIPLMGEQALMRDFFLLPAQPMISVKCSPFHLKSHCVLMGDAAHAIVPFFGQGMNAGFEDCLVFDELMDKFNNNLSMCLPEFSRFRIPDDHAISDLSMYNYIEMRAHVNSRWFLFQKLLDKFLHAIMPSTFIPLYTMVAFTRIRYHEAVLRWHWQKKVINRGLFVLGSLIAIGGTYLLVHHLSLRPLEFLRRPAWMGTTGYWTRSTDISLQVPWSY
Assay type: biochemical
Protocol: A method of monitoring L-Kynurenine (KYN) hydroxylation to form 3-Hydroxy-Kynurenine (3OH-KYN) by LC/MS is described. Product is quantified by multiple reaction monitoring (MRM method).
• Compound: Stock concentrations: 10 mM in 100% DMSO • Enzyme: KMO enzyme prepared at Evotec from mouse liver (4-6 weeks old) via mitochondria isolation as described in the literature • Substrate: L-Kynurenine (Sigma: Cat# K3750, stock concentration: 10 mM in 100 mM potassium phosphate buffer, pH 7.4)
• Buffer: 100 mM potassium phosphate, pH 7.4, 200 μM NADPH, 0.4 U/ml G6P-DH (Glucose 6-phosphate Dehydrogenase), 3 mM G6P (D-Glucose 6-phosphate) • Assay Volume: 40 μl • Plate Format: 384 well plate, transparent (Matrix) • Read-Out: product (3OH-KYN) quantification using product specific MRM • Reader: LC/MS/MS
• prepare serial dilution (factor 3) of compound in 100% DMSO (top concentration=10 mM, 100% DMSO) • [8 points: 10 mM; 3.33 mM; 1.11 mM; 0.37 mM; 0.12 mM; 0.04 mM; 0.0137 mM; 0.0045 mM, 0.0015 mM] • prepare […] solution of each compound concentration (top concentration 300 μM, 3% DMSO) in assay buffer • [concentrations: 300 μM; 100 μM; 33.3 μM; 11.1 μM; 3.70 μM; 1.23 μM; 0.41 μM; 0.137 μM] • prepare substrate (10 mM) at concentration of 1 mM in assay buffer • assay mix: 4 μl compound/well of each concentration+24 μl assaybuffer/well+8 μl KMO mouse enzyme+4 μl 1 mM substrate (final concentration=100 μM) • [final compound top concentration: 30 μM; 0.3% DMSO] • [final compound bottom concentration: 0.0137 μM; 0.3% DMSO] • positive control: 4 μl 50 μM FCE28833 in assay buffer, 0.5% DMSO [final assay concentration=5 μM]+24 μl assaybuffer/well+8 μl KMO mouse enzyme+4 μl 1 mM substrate [final concentration=100 μM] • negative control: 28 μl assay buffer/well+8 μl KMO mouse enzyme+4 μl 1 mM substrate [final concentration=100 μM] • incubate 40 min at RT • add 40 μl/well 10% trichloro acetic acid in water to stop the assay and precipitate protein • centrifuge plate for 3 min at 4000 rpm • product detection by LC/MS (injection of 20 μl/well, 2 fold overfill of the 10 μl sample loop) Data analysis: IC50's are calculated using automated fitting algorithm (A+Analysis).
Using procedures similar to those described herein, the following compounds were assayed for activity.
CON=C(CCC(=O)Nc1ncc(C)nc1C)c1ccc(Cl)c(Cl)c1 [4-(3,4-Dichloro-phenyl)-N-(3,5-dimethyl-pyrazin-2-yl)-4-methoxyimino-butyramide] gave an inhibition at 10 µM of 101%. CON=C(CCC(=O)NCC(O)CO)c1ccc(Cl)c(Cl)c1 (stereo not drawn) [4-(3,4-Dichloro-phenyl)-N-(2,3-dihydroxy-propyl)-4-methoxyimino-butyramide] was tested, and the inhibition at 10 µM was 75.7%. With NCCON=C(CCC(=O)O)c1ccc(Cl)c(Cl)c1 [4-[2-Amino-ethoxyimino]-4-(3,4-dichloro-phenyl)-butyric acid trifluoroacetic acid salt] the inhibition at 10 µM was 49.5%. In the case of CON=C(CCC(=O)Nc1ccncc1)c1ccc(Cl)c(Cl)c1 [4-(3,4-Dichloro-phenyl)-4-methoxyimino-N-pyridin-4-yl-butyramide], the inhibition at 10 µM is reported as 76.5%. CON=C(CCC(N)=O)c1ccc(Cl)c(Cl)c1 [4-(3,4-Dichloro-phenyl)-4-methoxyimino-butyramide] showed an inhibition at 10 µM of 94.9%. In the case of CO/N=C(\CCC(=O)NC1CCN(C(=O)OC(C)(C)C)CC1)c1ccc(Cl)c(Cl)c1 [4-[4-(3,4-Dichloro-phenyl)-4-methoxyimino-butyrylamino]-piperidine-1-carboxylic acid tert-butyl ester], the inhibition at 10 µM is reported as 75.2%. CO/N=C(\CCC(=O)O)c1cc(Cl)cc(Cl)c1 [4-(3,5-Dichloro-phenyl)-4-methoxyimino-butyric acid] was tested, and the inhibition at 10 µM was 98.7%. Work on CON=C(CCC(=O)NC1CCNC1)c1ccc(Cl)c(Cl)c1 (stereo not drawn) [4-(3,4-Dichloro-phenyl)-4-methoxyimino-N-pyrrolidin-3-yl-butyramide] yielded an inhibition at 10 µM of 74.3%. For CON=C(CCC(=O)N(C)OC)c1ccc(Cl)c(Cl)c1 [4-(3,4-Dichloro-phenyl)-N-methoxy-4-methoxyimino-N-methyl-butyramide], the inhibition at 10 µM was 102%.
